We go through 6 compounds from ChEMBL document CHEMBL1127980, “A convenient synthesis of 2-amino-2-oxazolines and their pharmacological evaluation at cloned human adrenergic receptors” (Bioorg Med Chem Lett, 1994).

Experiment [1] concerns the target T1, Alpha-1D adrenergic receptor (Homo sapiens, UniProt P25100).
T1 sequence (P25100 whole entry): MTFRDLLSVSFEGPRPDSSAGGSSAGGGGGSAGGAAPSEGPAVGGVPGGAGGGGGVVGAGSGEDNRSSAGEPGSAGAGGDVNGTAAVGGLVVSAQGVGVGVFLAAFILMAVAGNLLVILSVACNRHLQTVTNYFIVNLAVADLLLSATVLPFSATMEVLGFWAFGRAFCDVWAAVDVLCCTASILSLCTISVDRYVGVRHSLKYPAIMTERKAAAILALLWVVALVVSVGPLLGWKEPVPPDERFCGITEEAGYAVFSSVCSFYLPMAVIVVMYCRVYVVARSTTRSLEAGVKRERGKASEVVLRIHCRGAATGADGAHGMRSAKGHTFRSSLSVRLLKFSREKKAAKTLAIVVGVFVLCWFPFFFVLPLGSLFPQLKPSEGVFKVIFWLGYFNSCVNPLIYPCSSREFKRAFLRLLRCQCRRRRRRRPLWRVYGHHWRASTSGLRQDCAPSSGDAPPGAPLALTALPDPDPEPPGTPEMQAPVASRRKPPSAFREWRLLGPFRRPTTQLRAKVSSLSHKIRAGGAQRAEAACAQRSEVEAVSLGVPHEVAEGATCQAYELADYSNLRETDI
In words: Binding affinity towards human Alpha-1A adrenergic receptor by the displacement of [3H]prazosin. In general terms: Loss of bound radioactivity is the signal in a displacement assay; it reports binding, not function.

Experiment [2] concerns the target T2, Alpha-2B adrenergic receptor (Homo sapiens, UniProt P18089).
T2 sequence (P18089 whole entry): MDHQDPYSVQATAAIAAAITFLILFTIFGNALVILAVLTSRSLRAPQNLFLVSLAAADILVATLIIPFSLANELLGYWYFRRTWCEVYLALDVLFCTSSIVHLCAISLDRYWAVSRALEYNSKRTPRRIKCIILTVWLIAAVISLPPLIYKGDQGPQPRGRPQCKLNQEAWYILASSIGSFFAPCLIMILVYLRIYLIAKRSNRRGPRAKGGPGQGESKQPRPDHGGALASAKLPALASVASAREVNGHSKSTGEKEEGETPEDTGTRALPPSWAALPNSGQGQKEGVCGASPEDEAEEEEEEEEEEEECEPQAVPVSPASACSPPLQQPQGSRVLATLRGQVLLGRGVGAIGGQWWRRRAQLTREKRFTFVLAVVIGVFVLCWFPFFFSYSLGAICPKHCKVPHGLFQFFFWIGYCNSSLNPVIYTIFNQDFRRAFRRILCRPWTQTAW
Kind of experiment: Agonistic activity towards human Alpha-2B adrenergic receptor was measured as ability to inhibit forskolin-stimulated synthesis of cyclic adenosine monophosphate. It is filed as functional.

Experiment [3] deals with T3, Alpha-1A adrenergic receptor (Homo sapiens, UniProt P35348).
T3 sequence (P35348 whole entry): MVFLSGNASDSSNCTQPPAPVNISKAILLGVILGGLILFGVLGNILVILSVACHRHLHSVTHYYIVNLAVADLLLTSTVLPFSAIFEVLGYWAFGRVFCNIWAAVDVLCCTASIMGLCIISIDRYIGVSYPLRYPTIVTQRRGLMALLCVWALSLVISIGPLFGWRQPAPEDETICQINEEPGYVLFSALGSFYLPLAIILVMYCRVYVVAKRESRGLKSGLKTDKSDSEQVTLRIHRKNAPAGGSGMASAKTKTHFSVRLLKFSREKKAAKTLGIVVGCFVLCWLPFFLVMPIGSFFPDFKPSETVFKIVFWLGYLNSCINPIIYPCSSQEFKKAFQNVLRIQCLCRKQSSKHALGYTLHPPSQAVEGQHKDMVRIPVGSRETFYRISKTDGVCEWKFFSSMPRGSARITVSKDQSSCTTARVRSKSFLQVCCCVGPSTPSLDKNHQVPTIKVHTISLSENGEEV
In words: Binding affinity towards human Alpha-1C adrenergic receptor by the displacement of [3H]prazosin.

Experiment [4] addresses T4, Alpha-2A adrenergic receptor (Homo sapiens, UniProt P08913).
T4 sequence (P08913 whole entry): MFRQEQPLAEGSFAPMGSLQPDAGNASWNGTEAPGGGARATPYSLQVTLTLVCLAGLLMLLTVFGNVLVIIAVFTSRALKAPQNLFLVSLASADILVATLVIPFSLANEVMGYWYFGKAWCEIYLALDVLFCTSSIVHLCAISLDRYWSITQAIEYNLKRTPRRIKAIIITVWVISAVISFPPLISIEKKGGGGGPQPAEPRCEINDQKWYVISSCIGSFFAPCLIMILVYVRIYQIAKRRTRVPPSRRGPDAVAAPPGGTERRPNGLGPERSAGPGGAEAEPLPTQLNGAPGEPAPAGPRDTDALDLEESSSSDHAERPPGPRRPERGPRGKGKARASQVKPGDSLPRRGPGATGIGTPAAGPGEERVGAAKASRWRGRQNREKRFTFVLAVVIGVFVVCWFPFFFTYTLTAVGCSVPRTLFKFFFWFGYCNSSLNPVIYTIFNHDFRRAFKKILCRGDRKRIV
Kind of experiment: Binding affinity towards human Alpha-2A adrenergic receptor by the displacement of [3H]rauwolscine.

Experiment [5] addresses T2, Alpha-2B adrenergic receptor. Kind of experiment: Binding affinity towards human Alpha-2B adrenergic receptor by the displacement of [3H]rauwolscine.
For experiment [6], the target named is T4, Alpha-2A adrenergic receptor. In words: Agonistic activity towards human Alpha-2A adrenergic receptor was measured as ability to inhibit forskolin-stimulated synthesis of cyclic adenosine monophosphate. The experiment is classed as functional.
Experiment [7] concerns the target T5, Alpha-2C adrenergic receptor (Homo sapiens, UniProt P18825).
T5 sequence (P18825 whole entry): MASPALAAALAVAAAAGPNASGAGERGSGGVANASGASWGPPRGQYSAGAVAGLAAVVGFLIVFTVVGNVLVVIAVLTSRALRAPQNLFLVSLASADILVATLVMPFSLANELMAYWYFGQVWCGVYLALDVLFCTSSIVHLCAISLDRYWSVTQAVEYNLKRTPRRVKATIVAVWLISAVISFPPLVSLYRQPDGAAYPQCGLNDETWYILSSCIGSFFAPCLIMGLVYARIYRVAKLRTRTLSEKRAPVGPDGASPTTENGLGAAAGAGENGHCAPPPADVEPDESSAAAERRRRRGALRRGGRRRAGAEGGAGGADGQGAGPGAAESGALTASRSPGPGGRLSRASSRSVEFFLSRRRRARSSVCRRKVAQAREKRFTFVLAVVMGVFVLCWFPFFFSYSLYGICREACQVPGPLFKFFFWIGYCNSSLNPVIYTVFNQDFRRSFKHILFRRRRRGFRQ
In words: Agonistic activity towards human Alpha-2C adrenergic receptor was measured as ability to inhibit forskolin-stimulated synthesis of cyclic adenosine monophosphate. It is filed as functional.

The target in experiment [8] is T5, Alpha-2C adrenergic receptor. Kind of experiment: Binding affinity towards human Alpha-2C adrenergic receptor by the displacement of [3H]rauwolscine.

Broadly, the Ki is a dissociation constant, usually derived from enzyme kinetics or from competition with a known ligand. In general, EC50 refers to the concentration that produces a half-maximal response. A higher EC50 goes with a need for much substance. Consider `C1CCCC(NC2=NCCO2)CC1`, for which the Ki in experiment [1] is 3800 nM; in experiment [3], 2000 nM; in experiment [4], 5.37 nM; in experiment [5] it was 9.77 nM; in experiment [8] it was 33.1 nM. Besides, the concentration for a half-maximal effect (EC50) in experiment [2] was 214 nM; in experiment [6] it was 38 nM; in experiment [7], 77.6 nM.
`c1ccc2c(c1)CCCC2NC1=NCCCO1` (stereo not given): the Ki in experiment [1] is 2190 nM; in experiment [3] it was 1950 nM; in experiment [4], 25.7 nM; in experiment [5] it was 25.1 nM; in experiment [8], 85.1 nM. Besides, the EC50 is 34.7 nM in experiment [2], 229 nM in experiment [6] and 24.5 nM in experiment [7].
For the compound `CCC[C@H]1CCCCC1NC1=NCCO1` (stereo not given in full), the Ki in experiment [1] is 562 nM; in experiment [3], 141 nM; in experiment [4] it was 2.95 nM; in experiment [5], 5.89 nM; in experiment [8] it was 24.5 nM. The EC50 in experiment [2] is 9.33 nM; in experiment [6] it was 1.62 nM; in experiment [7] it was 4.07 nM.
As for `c1ccc2c(c1)CCCC2NC1=NCCO1` (stereo not given), the Ki was 204 nM in experiment [1]; 126 nM in experiment [3]; 2.34 nM in experiment [4]; 2.14 nM in experiment [5]; 12 nM in experiment [8]. In addition, the values for the EC50 in experiment [2], in experiment [6] and in experiment [7] were 3.55 nM, 1.17 nM and 2.19 nM, respectively.
Consider `C1COC(N2CCOCC2)=N1`, for which the Ki in experiment [1] is 120000 nM; in experiment [3], 107000 nM; in experiment [4] it was 16600 nM; in experiment [5], 11700 nM; in experiment [8] it was 16600 nM.
Regarding `C1COC(NC(C2CC2)C2CC2)=N1` [RILMENIDINE], the inhibition constant Ki in experiment [1] is 8910 nM; in experiment [3], 6030 nM; in experiment [4] it was 182 nM; in experiment [5] it was 70.8 nM; in experiment [8] it was 288 nM. Besides, the 50% effective concentration (EC50) is 724 nM in experiment [2], 275 nM in experiment [6] and 191 nM in experiment [7].
